# In patent publication US20130316948A1, “GROWTH HORMONE RECEPTOR DEFICIENCY CAUSES A MAJOR REDUCTION IN PRO-AGING SIGNALING, CANCER AND DIABETES IN HUMANS” (UNIVERSITY OF SOUTHERN CALIFORNIA, priority 2011, published 2013):
# B1: IGFBP1: IGF-I inhibitor insulin-like growth factor-binding protein 1 (protein, UniProt P08833 26-259, looked up)
# Insulin-like growth …: APWQCAPCSAEKLALCPPVSASCSEVTRSAGCGCCPMCALPLGAACGVATARCARGLSCRALPGEQQPLHALTRGQGACVQESDASAPHAAEAGSPESPESTEITEEELLDNFHLMAPSEEDHSILWDAISTYDGSKALHVTNIKKWKEPCRIELYRVVESLAKAQETSGEEISKFYLPNCNKNGFYHSRQCETSMDGEAGLCWCVYPWNGKRIPGSPEIRGDPNCQIYFNVQN
# Columns and labels:
# [1] = tested on: pancreatic carcinoma cells; settings: Mol Cancer Ther May 2009 8:1095-1105; cited from earlier work
# HMECs = test: LDH cytotoxicity assay after H2O2 in epithelial cells incubated in serum; type: cell-based, human; settings: 200 ng/ml IGF-I added to GHRD serum, 700 μM H2O2
# [2] = Body weight of mice immunized with human Growth Hormone; type: in vivo, mouse; settings: 20 male and 20 female mice, versus time
# Source text: FIG. 16A provides a plot of body weight of mice immunized with human Growth Hormone (huGH) (20 male and 20 female) versus time.
# This figure provides a plot of body weight of mice immunized with human Growth Hormone (huGH) (20 male and 20 female) versus time.
# human GH = human GH (Homo sapiens, UniProt P01241); test: Slot blot of anti-huGH activity in serum from mice immunized with huGH; type: in vivo, mouse; settings: slot blot against immobilized human GH
# [3] = Short term immunization with human GH before cyclophosphamide: body weight and complete blood count; type: in vivo, mouse; settings: cyclophosphamide i.p., 300 mg/kg, CBC 7-days after CP
# Protocol: FIG. 17A provides plots of the body weight of mice with short term immunization (STI) with human GH (half-filled arrowheads) after cyclophosphamide treatment (cyclophosphamide (CP) i.p., 300 mg/kg, indicated by the solid arrowhead) (Sham means treated with buffer and no chemo);
# FIG. 17B provides a histogram of the complete blood count (CBC) 7-days after CP treatment (Data are presented as percentage of pre-chemo value);
# FIG. 17A provides plots of the body weight of mice with short term immunization (STI) with human GH (half-filled arrowheads) after cyclophosphamide treatment (cyclophosphamide (CP) i.p., 300 mg/kg, indicated by solid arrowheads). FIG. 17B provides a histogram of the complete blood count (CBC) 7-days after CP treatment (Data are presented as percentage of pre-chemo value).
# primary glial cells = test: 24 hour LDH release from primary glial cells under oxidative damage; type: cell-based
# Protocol: FIG. 20 provides a plot of the 24 hour lactate dehydrogenase (LDH) release from the treatment of primary glial cells with the IGF-I inhibitor insulin-like growth factor-binding protein 1 (IGFBP1) and with insulin-like growth factor-binding protein 2 (IGFBP2). […] IGFBP1 is a strong IGF-I inhibtor. Other IGFBPs can even increase IGF-I signaling.
# Chain of human GH (P01241 27-217): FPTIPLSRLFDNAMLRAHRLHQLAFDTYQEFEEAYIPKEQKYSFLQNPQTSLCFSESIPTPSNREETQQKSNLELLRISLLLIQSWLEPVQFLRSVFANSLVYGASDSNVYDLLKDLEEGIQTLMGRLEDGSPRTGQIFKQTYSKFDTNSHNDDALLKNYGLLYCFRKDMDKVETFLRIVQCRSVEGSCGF
molecule,measurement,setting,value
AMG 479: fully human anti-insulin-like growth factor receptor type I monoclonal antibody,Effect on pancreatic carcinoma cells,[1],inhibits the growth and survival of pancreatic carcinoma cells
"IGF-I: insulin like growth factor-I, added at 200 ng/ml to GHRD serum",Effect on the higher cytotoxicity seen in GHRD serum,HMECs,completely reversed
huGH: human Growth Hormone used to immunize mice to generate inhibitory antibodies against GH,Body weight of immunized mice,[2],Lower body weight
same,Immunized mice whose serum showed strong anti-huGH activity,human GH,34 out of 40
same,"Effect of immunization on chemotherapy side effects (body weight, CBC)",[3],protective effect against chemotherapy side effects
B1,Effect on oxidative damage (LDH release),primary glial cells,protects them against oxidative damage
